According to patent US5700830A, “Use of nitric oxide-releasing agents for reducing metastasis risk” (The United States of America as represented by the …, priority 1994, dated 1997):
Structures can show the parent of a compound that is named as a salt.

How the values were obtained:
[1] = system: DNA synthesis; details: cited from earlier work
[2] = decomposition half-life and nitric oxide release in aqueous buffer; type: physicochemical; details: pH 7 and 25° C.; for half-life: aqueous buffer
Method: The resulting gel was treated with a few drops of methanol until a homogeneous solution was obtained. The solution was transferred into a micro-Parr bottle and bubbled with nitrogen for 5 min, followed by exposure to 40 psi of NO for 72 h.
The system was degassed and charged with 40 psi of nitric oxide.
The system was evacuated, charged with 40 psi of nitric oxide and kept at 25° C. for 48 h. The white crystalline product was collected by filtration and washed with cold methanol as well as with copious amounts of ether. […] This measurement was based on the loss of the 252-nm chromophore in the ultraviolet spectrum.

[3] = system: RPMI 1846 melanotic melanoma cells adhering to rat mesenteric postcapillary venules; assay: adhesion of melanoma tumor cells to isolated postcapillary venules; type: cell-based, Syrian hamster (tumor cells); Sprague-Dawley rat (vessels); details: 1 mM DETA/NO for 30 min, FIG. 1
Method: RPMI 1846, a melanotic melanoma of a Syrian hamster, was obtained from the American Type Culture Collection, Rockville, Md., and grown in McCoy's 5A medium (GIBCO, Grand Island, N.Y.) supplemented with 20% fetal bovine serum (GIBCO, Grand Island, N.Y.) at 37° C. in a humidified 5% CO2 atmosphere. […]
A segment of bowel and attached mesentery was excised and placed in a dissecting chamber containing ice-cold, pH 7.4 PSS (same as APSS but without added serum). […] A television camera mounted on the microscope was used to project the image onto a television monitor and the images were recorded using a videocassette recorder. […]
After a 30-min stabilization period, the vessel was perfused with tumor cell suspension. […] The number of cells sitting on the microvessel was observed and recorded. […] Five minutes later, the number of tumor cells remaining adherent to the vessel wall was counted and recorded. The percentage of adherent cells was calculated by dividing the number of tumor cells remaining adherent to the vessel wall after flow was resumed for 5 minutes by the total number of cells setting on the vessel wall when flow was interrupted. […]

[4] = via exhaustion of the relevant enzyme/cofactor system; cited from earlier work
[5] = cited from earlier work

## CC(=O)N[C@H](C(=O)O)C(C)(C)SN=O (racemic) [S-nitroso-N-acetylpenicillamine]
[1]
  inhibition of DNA synthesis: effective at inhibiting DNA synthesis

## CCOC(=O)N1CCN([N+]([O-])=NO)CC1 [1-(4-carbethoxypiperazin-1-yl)-1-oxo-2-hydroxydiazene, sodium salt]
[2]
  half-life: 5 min

## NCCN(CCN)[N+]([O-])=NO [DETA/NO]
[3]; LPS-treated venules
  effect on LPS-enhanced tumor cell adhesion to postcapillary venules: completely blocked the enhancing effect of LPS on tumor cell adhesion
[3]; untreated venules, P<0.05
  effect on tumor cell adhesion to untreated venules: decreased tumor cell adhesion to untreated venules

## CSCC[C@H](NC(C)=O)C(=O)N1CCN([N+]([O-])=NO)CC1 [Example V, 1-[4-(N-acetyl-L-methionyl)piperazin-1-yl]-1-oxo-2-hydroxydiazene, sodium salt]
[2]
  half-life: 6.9 min
  NO produced per mole of test agent: 1.72 moles of NO per mole of test agent

## O=[N+]([O-])OCC(CO[N+](=O)[O-])O[N+](=O)[O-] [glyceryl trinitrate]
[4]
  tolerance: tolerance to glyceryl trinitrate can develop

## Nitric oxide
[5]
  solubility in aqueous media: limited solubility in aqueous media
